From PubChem BioAssay AID651672 (The Scripps Research Institute Molecular Screening Center, 2012)
Calls of active or inactive are those of the source. The rule behind the calls is not given here.

Target: Perilipin-1 (Homo sapiens) (UniProt O60240)
Assay: inhibitors of ABHD5-PLIN1 binding, dose response, counter-screen for ABHD5-PLIN5 interaction inhibitor project, biochemical, luminescence (AID 651672);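 note: split Gaussia luciferase complementation between ABHD5 and PLIN1 fusion fragments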

Perilipin-1 (Homo sapiens), sequence (O60240 whole entry, looked up, the tested form may be a part): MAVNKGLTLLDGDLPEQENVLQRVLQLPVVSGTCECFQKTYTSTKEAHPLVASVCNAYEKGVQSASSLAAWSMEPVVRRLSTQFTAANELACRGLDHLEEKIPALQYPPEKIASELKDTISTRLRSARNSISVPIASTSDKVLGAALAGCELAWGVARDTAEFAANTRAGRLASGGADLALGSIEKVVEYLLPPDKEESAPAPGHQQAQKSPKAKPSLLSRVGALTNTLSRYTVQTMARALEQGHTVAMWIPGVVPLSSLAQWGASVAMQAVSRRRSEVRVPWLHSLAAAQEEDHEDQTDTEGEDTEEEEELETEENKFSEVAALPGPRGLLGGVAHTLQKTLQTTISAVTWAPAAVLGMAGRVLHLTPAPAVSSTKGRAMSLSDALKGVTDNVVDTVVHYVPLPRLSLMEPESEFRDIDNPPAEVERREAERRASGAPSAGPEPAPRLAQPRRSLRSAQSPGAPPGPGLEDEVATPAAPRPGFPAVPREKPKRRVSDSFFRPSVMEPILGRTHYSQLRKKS

Row | Structure (SMILES) | IC50
1 | COc1ccc(/C=C\C(=O)CC(O)(c2ccccc2)C(F)(F)F)cc1 (stereo not given) | 2680 nM
2 | CC1CCN(S(=O)(=O)c2ccc(NC(=O)Cc3cccs3)cc2)CC1 | 7020 nM
3 | CC(C)(C)NC(=O)C(c1ccc(C#N)cc1)n1c(=O)c(-c2ccco2)nc2ccccc21 (stereo not given) | 1410 nM
4 | CCN(CCCc1ccccc1)CCCc1ccccc1 | 2260 nM
5 | O=C(C[n+]1cccc(CNC(=O)c2ccc(OC(F)F)cc2)c1)Nc1cccc(C(F)(F)F)c1 | inactive
6 | C#CCN(C[C@@H]1[C@@H](OC(=O)NCc2ccccc2F)[C@@H](OC(=O)NCc2ccccc2F)Cn2c(=O)ccc(=O)n21)S(=O)(=O)c1ccc(C)cc1 | 4510 nM
7 | Cc1ccc(C)c(/C=C/C(=O)c2ccccc(=O)c2O)c1 | 5580 nM
8 | CCCCn1c(SCC(=O)NCc2ccco2)nnc1-c1ccoc1C | 4710 nM
9 | CCCNC(=O)Nc1ccc2c(c1)N(C)C(=O)c1ccccc1S2 | 4980 nM
10 | Cc1ccc(SC2=C(Sc3ccc(C)cc3)C(=O)c3ccccc3C2=O)cc1 | 6720 nM
11 | CN1CCC(=C2c3ccccc3CC(=O)c3sccc32)CC1 | inactive
12 | O=C(/C(=C/c1ccccc1)n1cncn1)c1ccc(Cl)cc1Cl | 2300 nM
13 | CSc1nnc(NC(=O)c2nc(S(=O)(=O)Cc3ccccc3)ncc2Cl)s1 | 3270 nM
14 | CC(C)(C)NC(=O)C(c1cccc2ccccc12)n1c(=O)c(-c2ccco2)nc2ccccc21 (stereo not given) | 2040 nM
15 | CCN1/C(=C/C=C/c2oc3ccc(-c4ccccc4)cc3[n+]2CC)Oc2ccc(-c3ccccc3)cc21 | 1240 nM
16 | CSc1nnc(NC(=O)c2nc(S(=O)(=O)Cc3ccccc3F)ncc2Cl)s1 | 2160 nM
17 | CC(C)c1nnc(NC(=O)c2nc(S(=O)(=O)Cc3ccc(F)cc3)ncc2Cl)s1 | 2840 nM
18 | CC(O)CC(=O)OC[C@]12CC[C@H]3[C@@](C)(CC[C@H]4C(C)(C)CCC[C@]34C)[C@@H]1CC(C1=CC(=O)OC1O)O2 (stereo not given in full) | 1250 nM
19 | CCCCCNC(=O)C(c1ccccc1F)n1c(=O)c(-c2ccco2)nc2ccccc21 (stereo not given) | 1090 nM
20 | CC(C)(C)NC(=O)C(C1CC1)n1c(=O)c(-c2ccco2)nc2ccccc21 (stereo not given) | 4200 nM

Row | Structure (SMILES) | IC50
21 | CN1CCC[C@@H]1CCO[C@](C)(c1ccccc1)c1ccc(Cl)cc1 | inactive
22 | CC(CCc1ccco1)NC(=O)CCc1nnc2ccc(NCc3ccccc3Cl)nn12 (stereo not given) | 2030 nM
23 | Cc1ccc(O)c(C(=O)/C=C/c2ccc3c(c2)OCCCO3)c1 | 4630 nM
24 | CC(C)(C)NC(=O)C(c1ccc(C(F)(F)F)cc1)n1c(=O)c(-c2ccco2)nc2ccccc21 (stereo not given) | 2690 nM
25 | O=C(/C=C/c1ccccc1)CC(O)(c1ccccc1)C(F)(F)C(F)F (stereo not given) | 821 nM
26 | O=C1CC(c2ccc(Cl)cc2)Oc2ccc(Cl)cc21 (stereo not given) | 2950 nM
27 | Cc1ccc2c(CC(=O)N3CCN(S(=O)(=O)c4ccc5c(c4)OCCO5)CC3)coc2c1 | 5110 nM
28 | COC(=O)c1ccc(Cn2cc(/C=C\[N+](=O)[O-])c3ccccc32)o1 | > 13300 nM (inactive)
29 | O=c1c(-c2ccco2)nc2ccccc2n1C(CCc1ccccc1)c1nc2ccccc2[nH]1 (stereo not given) | 2320 nM
30 | CCOC(=O)/C(=C\c1ccc(Cl)cc1)c1nc2sc(C)c(C)c2c(=O)[nH]1 | 525 nM
31 | O=C1/C(=C/c2cccnc2)CC/C1=C\c1cccnc1 | 5830 nM
32 | O=C(NC1CCCCC1)C(C1CC1)n1c(=O)c(-c2ccco2)nc2ccccc21 (stereo not given) | 3110 nM
33 | CN(C)CCOc1ccc(-c2c(-c3ccccc3)sc3ccccc23)cc1 | inactive
34 | COc1ccc(C(C(=O)NCc2ccccc2)n2c(=O)c(-c3ccco3)nc3ccccc32)cc1 (stereo not given) | 2170 nM
35 | C#CCN(C[C@@H]1[C@@H](OC(=O)NCC2CCCCC2)[C@@H](OC(=O)NCC2CCCCC2)Cn2c(=O)ccc(=O)n21)S(=O)(=O)c1ccc(C)cc1 | 4760 nM
36 | CC1Sc2ccc(S(=O)(=O)N3CCC(C(=O)NCc4ccc(Cl)cc4)CC3)cc2NC1=O (stereo not given) | 8370 nM
37 | CCOC(=O)C1C(OC(=O)c2ccccc2)CC2CCC1N2C (stereo not given) | inactive
38 | COC(=O)c1cc(=O)n(-c2ccc(F)cc2)c(=Nc2ccc(F)cc2)s1 | 2500 nM
39 | COc1cc(/C=C/C(=O)c2ccc(Cl)s2)cc(OC)c1O | 4590 nM
40 | C=CC(=O)N1c2ccccc2Sc2ccc(NC(=O)OCC)cc21 | 5010 nM
